According to ChEMBL document CHEMBL4308841, “Synthesis, in vitro antiproliferative activity, and kinase inhibitory effects of pyrazole-containing diarylureas and diarylamides” (Eur J Med Chem, 2018):

Columns and labels:
[1] = test system: IGROV-1; test: Growth inhibition of human IGROV1 cells assessed as cell growth at 0.01 uM incubated for 48 hrs by sulforhodamine B assay relative to control; format: functional; settings: IGROV-1, 48 h, read-out: Activity
[2] = test system: TK-10; test: Growth inhibition of human TK10 cells assessed as cell growth at 0.01 uM incubated for 48 hrs by sulforhodamine B assay relative to control; format: functional; settings: TK-10, 48 h, read-out: Activity
[3] = biological target: DNA-dependent protein kinase catalytic subunit (Homo sapiens) (UniProt P78527); test: Inhibition of human DNAPK at 10 uM using EPPLSQEAFADLWKK as substrate after 40 mins in presence of [gamma33P]ATP by scintillation counting method relative to control
[4] = test system: TK-10; test: Growth inhibition of human TK10 cells assessed as cell growth at 1 uM incubated for 48 hrs by sulforhodamine B assay relative to control; format: functional; settings: TK-10, 48 h, read-out: Activity
[5] = biological target: Mast/stem cell growth factor receptor Kit (Homo sapiens) (UniProt P10721); test: Inhibition of human c-KIT at 10 uM using poly[Glu:Tyr] (4:1) as substrate after 40 mins in presence of [gamma33P]ATP by scintillation counting method relative to control
[6] = test system: SN12C; test: Growth inhibition of human SN12C cells assessed as cell growth at 0.01 uM incubated for 48 hrs by sulforhodamine B assay relative to control; format: functional; settings: read-out: Activity
[7] = biological target: Mitogen-activated protein kinase 14 (Homo sapiens) (UniProt Q16539); test: Inhibition of human p38alpha at 10 uM using myelin basic protein as substrate after 40 mins in presence of [gamma33P]ATP by scintillation counting method relative to control
[8] = test system: RPMI-8226; test: Induction of apoptosis in human RPMI8226 cells assessed as increase in caspase 3/7 level; format: functional, cell-based
[9] = biological target: Vascular endothelial growth factor receptor 2 (Homo sapiens) (UniProt P35968); test: Inhibition of human VEGFR2 at 10 uM using poly[Glu:Tyr] (4:1) as substrate after 40 mins in presence of [gamma33P]ATP by scintillation counting method relative to control
[10] = test system: HOP-92; test: Growth inhibition of human HOP92 cells assessed as cell growth at 0.1 uM incubated for 48 hrs by sulforhodamine B assay relative to control; format: functional; settings: HOP-92, 48 h, read-out: Activity
[11] = test system: HOP-92; test: Growth inhibition of human HOP92 cells assessed as cell growth at 0.01 uM incubated for 48 hrs by sulforhodamine B assay relative to control; format: functional; settings: HOP-92, 48 h, read-out: Activity
[12] = test system: TK-10; test: Growth inhibition of human TK10 cells assessed as cell growth at 100 uM incubated for 48 hrs by sulforhodamine B assay relative to control; format: functional; settings: TK-10, 48 h, read-out: Activity
[13] = test system: TK-10; test: Growth inhibition of human TK10 cells assessed as cell growth at 0.1 uM incubated for 48 hrs by sulforhodamine B assay relative to control; format: functional; settings: TK-10, 48 h, read-out: Activity
[14] = biological target: Tyrosine-protein kinase JAK1 (Homo sapiens) (UniProt P23458); test: Inhibition of human JAK1 at 10 uM using poly[Glu:Tyr] (4:1) as substrate after 40 mins in presence of [gamma33P]ATP by scintillation counting method relative to control
[15] = test system: PC-3; test: Growth inhibition of human PC3 cells incubated for 48 hrs by sulforhodamine B assay; format: functional, cell-based; settings: PC-3, 48 h
[16] = test system: SNB-19; test: Growth inhibition of human SNB19 cells incubated for 48 hrs by sulforhodamine B assay; format: functional, cell-based; settings: SNB-19, 48 h
[17] = test system: OVCAR-8; test: Growth inhibition of human OVCAR8 cells assessed as cell growth at 0.1 uM incubated for 48 hrs by sulforhodamine B assay relative to control; format: functional; settings: OVCAR-8, 48 h, read-out: Activity
[18] = test system: SR; test: Growth inhibition of human SR cells assessed as cell growth at 0.01 uM incubated for 48 hrs by sulforhodamine B assay relative to control; format: functional; settings: read-out: Activity
[19] = biological target: Mitogen-activated protein kinase 1 (Homo sapiens) (UniProt P28482); test: Inhibition of human ERK2 at 10 uM using myelin basic protein as substrate after 40 mins in presence of [gamma33P]ATP by scintillation counting method relative to control
[20] = test system: HCC 2998; test: Growth inhibition of human HCC2998 cells assessed as cell growth at 0.1 uM incubated for 48 hrs by sulforhodamine B assay relative to control; format: functional; settings: HCC 2998, 48 h, read-out: Activity
[21] = biological target: Tyrosine-protein kinase JAK2 (Homo sapiens) (UniProt O60674); test: Inhibition of human JAK2 at 10 uM using poly[Glu:Tyr] (4:1) as substrate after 40 mins in presence of [gamma33P]ATP by scintillation counting method relative to control
[22] = test system: OVCAR-5; test: Growth inhibition of human OVCAR5 cells incubated for 48 hrs by sulforhodamine B assay; format: functional, cell-based; settings: OVCAR-5, 48 h
[23] = test system: RPMI-8226; test: Induction of apoptosis in human RPMI8226 cells assessed as increase in caspase 3/7 level at 10 uM relative to control; format: functional
[24] = biological target: Serine/threonine-protein kinase B-raf (Homo sapiens) (UniProt P15056); test: Inhibition of human BRAF at 10 uM using MEK1 (K97R) as substrate after 40 mins in presence of [gamma33P]ATP by scintillation counting method relative to control
[25] = test system: SF-295; test: Growth inhibition of human SF295 cells assessed as cell growth at 0.1 uM incubated for 48 hrs by sulforhodamine B assay relative to control; format: functional; settings: SF-295, 48 h, read-out: Activity
[26] = test system: MOLT-4; test: Growth inhibition of human MOLT4 cells assessed as cell growth at 1 uM incubated for 48 hrs by sulforhodamine B assay relative to control; format: functional; settings: MOLT-4, 48 h, read-out: Activity
[27] = test system: HOP-92; test: Growth inhibition of human HOP92 cells assessed as cell growth at 100 uM incubated for 48 hrs by sulforhodamine B assay relative to control; format: functional; settings: HOP-92, 48 h, read-out: Activity
[28] = biological target: RAF proto-oncogene serine/threonine-protein kinase (Homo sapiens) (UniProt P04049); test: Inhibition of human c-RAF at 10 uM using MEK1 (K97R) as substrate after 40 mins in presence of [gamma33P]ATP by scintillation counting method relative to control
[29] = biological target: Fibroblast growth factor receptor 1 (Homo sapiens) (UniProt P11362); test: Inhibition of human FGFR1 at 10 uM using KKKSPGEYVNIEFG as substrate after 40 mins in presence of [gamma33P]ATP by scintillation counting method relative to control
[30] = read-out: LC50 (the source's name)
[31] = read-out: pLC50 (the source's name) (converted)

Vascular endothelial growth factor receptor 2 (Homo sapiens), sequence (P35968 whole entry): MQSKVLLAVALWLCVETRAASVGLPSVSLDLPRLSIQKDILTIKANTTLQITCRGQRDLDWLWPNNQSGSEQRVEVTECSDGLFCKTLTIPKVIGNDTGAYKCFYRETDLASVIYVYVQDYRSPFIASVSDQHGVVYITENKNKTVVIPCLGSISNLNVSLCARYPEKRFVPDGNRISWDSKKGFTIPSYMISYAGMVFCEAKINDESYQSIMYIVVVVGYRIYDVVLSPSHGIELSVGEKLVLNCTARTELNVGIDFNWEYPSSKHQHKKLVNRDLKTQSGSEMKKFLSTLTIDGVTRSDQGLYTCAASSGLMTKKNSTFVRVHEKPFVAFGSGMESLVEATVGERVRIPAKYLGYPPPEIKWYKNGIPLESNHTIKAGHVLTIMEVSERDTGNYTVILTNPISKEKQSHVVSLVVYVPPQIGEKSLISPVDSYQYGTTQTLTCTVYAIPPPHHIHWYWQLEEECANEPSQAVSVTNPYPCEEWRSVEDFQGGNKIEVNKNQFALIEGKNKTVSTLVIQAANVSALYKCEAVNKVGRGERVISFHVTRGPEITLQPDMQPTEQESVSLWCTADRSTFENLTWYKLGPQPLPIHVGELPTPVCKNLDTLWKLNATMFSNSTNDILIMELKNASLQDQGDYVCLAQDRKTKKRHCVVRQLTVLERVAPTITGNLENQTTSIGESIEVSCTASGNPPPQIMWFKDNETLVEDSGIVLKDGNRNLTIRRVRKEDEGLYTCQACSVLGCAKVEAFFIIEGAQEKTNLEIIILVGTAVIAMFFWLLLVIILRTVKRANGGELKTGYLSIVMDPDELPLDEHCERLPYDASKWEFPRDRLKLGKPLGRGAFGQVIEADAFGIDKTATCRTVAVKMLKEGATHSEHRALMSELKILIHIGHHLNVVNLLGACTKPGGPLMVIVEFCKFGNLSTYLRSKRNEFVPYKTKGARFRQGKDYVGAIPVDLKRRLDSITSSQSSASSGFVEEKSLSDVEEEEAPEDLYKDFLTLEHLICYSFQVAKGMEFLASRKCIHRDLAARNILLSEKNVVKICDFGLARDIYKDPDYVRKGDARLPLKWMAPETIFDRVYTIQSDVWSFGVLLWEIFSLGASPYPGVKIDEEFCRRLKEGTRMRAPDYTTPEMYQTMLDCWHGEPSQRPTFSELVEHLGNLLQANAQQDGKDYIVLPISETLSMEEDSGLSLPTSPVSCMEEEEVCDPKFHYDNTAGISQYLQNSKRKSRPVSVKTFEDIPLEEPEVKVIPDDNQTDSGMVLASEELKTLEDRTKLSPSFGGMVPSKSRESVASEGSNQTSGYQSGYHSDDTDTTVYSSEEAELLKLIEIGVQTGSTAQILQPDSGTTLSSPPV
Tyrosine-protein kinase JAK2 (Homo sapiens), sequence (O60674 whole entry): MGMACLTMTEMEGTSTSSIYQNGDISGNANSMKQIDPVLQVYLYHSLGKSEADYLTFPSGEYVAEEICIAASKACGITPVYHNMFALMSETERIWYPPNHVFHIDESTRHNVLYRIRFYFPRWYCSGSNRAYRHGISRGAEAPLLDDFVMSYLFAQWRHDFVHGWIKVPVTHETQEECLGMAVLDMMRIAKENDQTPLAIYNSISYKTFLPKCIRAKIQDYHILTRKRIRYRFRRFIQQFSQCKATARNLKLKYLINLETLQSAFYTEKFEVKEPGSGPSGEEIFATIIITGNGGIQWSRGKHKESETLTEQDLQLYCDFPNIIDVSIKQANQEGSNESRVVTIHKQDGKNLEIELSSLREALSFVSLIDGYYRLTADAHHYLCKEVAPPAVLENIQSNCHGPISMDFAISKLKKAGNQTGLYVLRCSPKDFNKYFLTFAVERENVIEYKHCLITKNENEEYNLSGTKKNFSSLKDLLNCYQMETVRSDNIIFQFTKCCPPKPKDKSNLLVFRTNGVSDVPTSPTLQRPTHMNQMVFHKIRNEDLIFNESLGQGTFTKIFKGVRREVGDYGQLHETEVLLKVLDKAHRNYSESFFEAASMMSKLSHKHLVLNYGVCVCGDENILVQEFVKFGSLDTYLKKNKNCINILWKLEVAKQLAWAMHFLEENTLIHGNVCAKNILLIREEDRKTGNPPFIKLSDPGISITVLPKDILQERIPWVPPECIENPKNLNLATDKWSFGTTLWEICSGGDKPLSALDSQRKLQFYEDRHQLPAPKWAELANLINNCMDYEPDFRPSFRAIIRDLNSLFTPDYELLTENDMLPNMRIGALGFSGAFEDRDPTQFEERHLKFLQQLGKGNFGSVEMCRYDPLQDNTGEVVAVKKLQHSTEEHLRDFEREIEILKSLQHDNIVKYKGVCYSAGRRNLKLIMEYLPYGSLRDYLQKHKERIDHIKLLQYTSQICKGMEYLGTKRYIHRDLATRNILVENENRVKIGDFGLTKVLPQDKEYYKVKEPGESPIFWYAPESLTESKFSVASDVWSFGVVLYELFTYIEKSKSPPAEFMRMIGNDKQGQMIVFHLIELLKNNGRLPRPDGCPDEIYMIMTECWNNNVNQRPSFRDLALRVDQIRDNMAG
Mitogen-activated protein kinase 1 (Homo sapiens), sequence (P28482 whole entry): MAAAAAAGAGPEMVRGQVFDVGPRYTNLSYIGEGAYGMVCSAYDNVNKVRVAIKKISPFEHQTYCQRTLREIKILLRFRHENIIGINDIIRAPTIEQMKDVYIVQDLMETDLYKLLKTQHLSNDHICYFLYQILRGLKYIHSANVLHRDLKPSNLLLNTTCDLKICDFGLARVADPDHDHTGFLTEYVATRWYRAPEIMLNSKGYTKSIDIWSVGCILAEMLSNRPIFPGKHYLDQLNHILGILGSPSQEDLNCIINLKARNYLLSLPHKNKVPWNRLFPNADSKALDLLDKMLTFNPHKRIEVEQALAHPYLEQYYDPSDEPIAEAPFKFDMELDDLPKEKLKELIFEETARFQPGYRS
RAF proto-oncogene serine/threonine-protein kinase (Homo sapiens), sequence (P04049 whole entry): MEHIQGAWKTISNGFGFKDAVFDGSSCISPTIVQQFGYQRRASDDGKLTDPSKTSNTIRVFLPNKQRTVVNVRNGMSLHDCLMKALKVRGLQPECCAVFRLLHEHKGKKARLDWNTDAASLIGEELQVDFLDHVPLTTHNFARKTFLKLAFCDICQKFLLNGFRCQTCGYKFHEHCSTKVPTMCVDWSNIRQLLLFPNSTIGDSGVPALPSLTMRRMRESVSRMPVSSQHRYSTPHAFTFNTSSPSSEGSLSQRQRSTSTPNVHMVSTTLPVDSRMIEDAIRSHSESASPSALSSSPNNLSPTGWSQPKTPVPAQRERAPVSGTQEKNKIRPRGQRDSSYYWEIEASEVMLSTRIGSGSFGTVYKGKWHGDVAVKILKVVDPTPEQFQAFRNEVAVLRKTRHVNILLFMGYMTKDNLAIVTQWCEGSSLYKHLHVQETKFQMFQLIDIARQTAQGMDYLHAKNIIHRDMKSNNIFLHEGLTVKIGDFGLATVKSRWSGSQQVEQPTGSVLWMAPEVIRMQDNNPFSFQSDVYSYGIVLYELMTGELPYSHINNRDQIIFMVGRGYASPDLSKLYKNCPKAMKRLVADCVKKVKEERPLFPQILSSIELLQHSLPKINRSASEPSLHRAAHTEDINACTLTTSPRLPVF
Mitogen-activated protein kinase 14 (Homo sapiens), sequence (Q16539 whole entry): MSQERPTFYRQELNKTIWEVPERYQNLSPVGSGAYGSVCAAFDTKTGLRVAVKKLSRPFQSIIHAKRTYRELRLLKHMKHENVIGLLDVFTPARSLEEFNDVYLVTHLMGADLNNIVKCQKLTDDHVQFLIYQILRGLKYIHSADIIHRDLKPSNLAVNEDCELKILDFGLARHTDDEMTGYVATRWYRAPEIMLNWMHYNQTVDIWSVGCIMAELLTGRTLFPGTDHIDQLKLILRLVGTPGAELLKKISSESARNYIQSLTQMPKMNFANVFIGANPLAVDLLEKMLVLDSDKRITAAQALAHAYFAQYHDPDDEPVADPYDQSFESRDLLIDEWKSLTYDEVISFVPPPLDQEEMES
Tyrosine-protein kinase JAK1 (Homo sapiens), sequence (P23458 whole entry): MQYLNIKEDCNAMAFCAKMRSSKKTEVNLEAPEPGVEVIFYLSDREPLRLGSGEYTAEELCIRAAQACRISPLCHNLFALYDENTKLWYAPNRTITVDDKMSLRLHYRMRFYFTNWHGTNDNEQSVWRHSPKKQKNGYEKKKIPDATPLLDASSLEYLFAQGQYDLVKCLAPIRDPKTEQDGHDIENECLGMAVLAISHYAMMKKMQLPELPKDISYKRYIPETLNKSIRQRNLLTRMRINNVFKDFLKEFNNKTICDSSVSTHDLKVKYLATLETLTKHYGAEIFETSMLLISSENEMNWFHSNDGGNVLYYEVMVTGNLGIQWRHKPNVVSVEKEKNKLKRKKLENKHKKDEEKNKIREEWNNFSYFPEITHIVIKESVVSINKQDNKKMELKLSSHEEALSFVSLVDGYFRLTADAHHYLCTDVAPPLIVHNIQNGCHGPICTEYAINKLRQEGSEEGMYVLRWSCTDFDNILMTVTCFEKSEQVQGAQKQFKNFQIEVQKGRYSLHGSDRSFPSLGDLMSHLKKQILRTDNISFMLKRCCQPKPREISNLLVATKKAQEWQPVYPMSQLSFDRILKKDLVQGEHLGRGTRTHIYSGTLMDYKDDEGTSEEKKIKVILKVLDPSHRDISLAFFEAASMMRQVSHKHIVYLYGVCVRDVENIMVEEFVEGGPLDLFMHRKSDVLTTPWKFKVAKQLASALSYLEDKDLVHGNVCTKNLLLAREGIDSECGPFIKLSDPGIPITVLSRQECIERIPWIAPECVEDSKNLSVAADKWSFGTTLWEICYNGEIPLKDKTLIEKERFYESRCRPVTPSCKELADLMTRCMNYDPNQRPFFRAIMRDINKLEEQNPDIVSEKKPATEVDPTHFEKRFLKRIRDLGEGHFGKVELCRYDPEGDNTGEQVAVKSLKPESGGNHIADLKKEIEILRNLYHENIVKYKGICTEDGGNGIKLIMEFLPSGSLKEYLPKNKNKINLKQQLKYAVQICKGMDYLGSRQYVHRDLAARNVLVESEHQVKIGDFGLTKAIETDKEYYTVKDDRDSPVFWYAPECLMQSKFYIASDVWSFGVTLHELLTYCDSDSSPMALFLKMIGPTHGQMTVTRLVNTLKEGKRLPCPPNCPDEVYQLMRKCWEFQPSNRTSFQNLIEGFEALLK

SMILES: COc1cc(Cl)cc(-c2nn(-c3cccc(NC(=O)Nc4cc(C(F)(F)F)cc(C(F)(F)F)c4)c3)cc2-c2ccncc2)c1
- growth at 0.01 µM [1]: 103%
- growth at 0.01 µM [2]: 96%
- inhibition [3]: 3.5%
- growth at 1 µM [4]: 42%
- inhibition [5]: 1.25%
- growth at 0.01 µM [6]: 96%
- inhibition [7]: -5.41%
- EC50 [8]: 1520 nM
- inhibition [9]: -5.83%
- growth at 0.1 µM [10]: 83%
- growth at 0.01 µM [11]: 93%
- growth at 100 µM [12]: -91%
- growth at 0.1 µM [13]: 90%
- inhibition [14]: 10.7%
- IC50 [15]: 300 nM
- GI50 ([15]; read-out: GI50): 297 nM
- CC50 [15, 30]: > 100000 nM
- TGI ([15]; read-out: TGI): 1630 nM
- GI50 ([15]; read-out: pGI50 (converted)): 295 nM
- CC50 [15, 31]: > 100000 nM
- TGI ([15]; read-out: pTGI (converted)): 1620 nM
- IC50 [16]: 420 nM
- GI50 ([16]; read-out: GI50): 420 nM
- CC50 [16, 30]: > 100000 nM
- TGI ([16]; read-out: TGI): 11300 nM
- GI50 ([16]; read-out: pGI50 (converted)): 417 nM
- CC50 [16, 31]: > 100000 nM
- TGI ([16]; read-out: pTGI (converted)): 11200 nM
- growth at 0.1 µM [17]: 105%
- growth at 0.01 µM [18]: 101%
- inhibition [19]: -8.66%
- growth at 0.1 µM [20]: 105%
- inhibition [21]: -2.88%
- IC50 [22]: 1460 nM
- GI50 ([22]; read-out: GI50): 1460 nM
- CC50 [22, 30]: > 100000 nM
- TGI ([22]; read-out: TGI): 12800 nM
- GI50 ([22]; read-out: pGI50 (converted)): 1450 nM
- CC50 [22, 31]: > 100000 nM
- TGI ([22]; read-out: pTGI (converted)): 12900 nM
- fold change (FC) [23]: 2.79
- inhibition [24]: 39.1%
- growth at 0.1 µM [25]: 91%
- growth at 1 µM [26]: 10%
- growth at 100 µM [27]: -77%
- inhibition [28]: 57.8%
- inhibition [29]: -1.71%
